Assay results published in US11702442B2, “Cyclic dinucleotide compounds as sting agonists” (The Regents of the University of California, priority 2019, dated 2023).

Legend:
rocR = molecular target: T1, rocR (Pseudomonas aeruginosa, UniProt Q9HX69); experiment: rocR-mediated CDN hydrolysis monitored by HPLC; type: biochemical, P. aeruginosa
T1 construct: made in house; host or cells: Escherichia coli BL21(DE3)
From the text: [1a,27] rocR is a PDE that contains an EAL domain and specifically recognizes and cleaves c-di-GMP into the linear dinucleotide pGpG. […] [28a,29]
RocR is reported to follow Michaelis-Menten kinetics. [27c,28a] Scheme 2a was therefore used to analyze the reaction kinetics, where k1 and k−1 describe the enzyme/substrate association and dissociation, respectively, while k2 reflects the cleavage reaction. Equations (10)-(13) were thus used to extract the rate constants. When “asymmetrical” mixed c-di-GMP analogues are treated with rocR, the enzyme may, in principle, recognize and cleave either phosphodiester bonds, producing pN1pN2 and pN2pN1. Assuming the two products result from different binding orientation of the heterodimeric CDNs, Scheme 2b is therefore introduced to model the cleavage reactions, where k1, k−1 and k2 reflect the association/dissociation and cleavage of the heterodimeric CDN in one orientation, respectively, and k3, k−3 and k4 reflect the other. Equations (14)-(19) were used to extract the rate constants.
Equations(10)-(19) d[S]/dt=−k1[E][S]+k−1[ES] (10) d[E]/dt=−k1[E][S]+k−1[ES]+k2[ES] (11) d[P]/dt=k2[ES] (12) d[ES]/dt=k1[E][S]−k−1[ES]−k2[ES] (13) d[S]/dt=−k1[E][S]+k−1[ES1]−k3[E][S]+k−3[ES2] (14) d[P1]/dt=k2[ES1] (15) d[P2]/dt=k4[ES2] (16) d[E]/dt=−(k1+k3)[E][S]+(k−1+k2)[ES1]+[…][ES2]] (17) d[ES1]/dt=k1[E][S]−k−1[ES1]−k2[ES1] (18) d[ES2]/dt=k3[E][S]−k−3[ES2]−k4[ES2] (19)
CDN hydrolysis with rocR. […] of CDN was incubated with 100 nM of rocR in a buffer containing 100 mM Tris-HCI, pH 8, 20 mM KCI, 25 mM MgCl2 at 37° C. Aliquots of the reaction mixture were taken out at designated time points and quenched with 100 mM CaCl2. All aliquots were filtered before subjected to reverse-phase HPLC analysis. The reaction mixture was separated by Sepax Bio C-18 column (250×10 mm, 5 µm particle size) with a gradient of 0.1-15% of 10 mM NH4OAc, pH7 in Me0H in 12 minutes at 25° C. or 50° C. (only for reactions of c-GtzGMP and c-di-tzGMP) on an Agilent 1200 series HPLC system (Agilent Technologies).
Data Analysis and curve fitting. […] The relative concentrations were plotted against time.

STING pathway [1] = experiment: IRF3 phosphorylation in RAW 264.7 cells (immunoblot pIRF3 vs β-actin); type: cell-based, murine; conditions: RAW 264.7, 1, 5 and 10 μM CDN, 2 h after transfection
Protocol: FIGS. 2A-2B show IRF3 phosphorylation induced by c-di-GMP and its analogues. […] 1, 5 and 10 μM of each CDN was used to transfect RAW 264.7 cells. Cells were lysed with NP-40 lysis buffer 2 h post transfection, 20 μg of total protein was loaded on SDS-polyacrylamide gel. Proteins were transferred to PVDF membrane after gel electrophoresis, and immunoblotted against pIRF3 and β-actin. […] The y-axis indicates relative intensity of pIRF3 compare to β-actin.
To analyze the immunostimulatory effects of all synthetic CDNs in greater detail, RAW 264.7 cells were treated with various concentrations of c-di-GMP, c-di-tzGMP, c-di-thGMP, c-GthGMP and c-GtzGMP and the phosphorylation of IRF3 to pIRF3 was evaluated. CDNs were thus transfected into RAW 264.7 murine cells with digitonin as described in previous studies.[7b,16] Cells were then lysed with NP-40 buffer 2 h after transfection, and total protein was collected for immunoblotting against phosphorylated IRF3 (pIRF3) and β-actin. […] Two other biological replicates produced similar trends (See FIG. S2 in Yi et al, ChemBioChem, Volume 21 (2020)).
Immunoblotting. RAW 264.7 cells were plated on 24-well plates (5×10^5 cells per well) and incubate at 37° C. for 48 h. Cells were then transfected with 1-10 μM of CDN in a permeabilization buffer containing 10 μg/mL digitonin, 50 mM HEPES, pH 7, 100 mM KCl, 3 mM MgCl2, 85 mM sucrose, 1 mM ATP, 0.1 mM DTT, 0.2% BSA for 30 mins at 37° C., then incubated with regular growth medium for 2 h. Cells were lysed with NP-40 lysis buffer containing protease inhibitor cocktail (Roche), PhosSTOP (Roche) and PMSF, and total protein was collected and quantified by BCA assay. Protein extracts were resolved by SDS-PAGE with 7.5% gel and transferred to PVDF membrane. Proteins were detected with the following primary antibodies: rabbit anti-pIRF3 monoclonal antibody (Cell Signaling Technology), mouse anti-β actin monoclonal antibody (Sigma-Aldrich).

STING pathway [2] = experiment: IFN-β mRNA production in RAW 264.7 cells by RT-qPCR; type: cell-based, murine
Protocol: FIGS. 3A-3C provide IFN data. […] RAW 264.7 cells were transfected with 1, 5, 10 μM of c-di-GMP, c-di-^tzGMP, c-G^thGMP, c-di-G^thGMP and c-G^tzGMP, and incubated for 2, 4, 6 h before being lysed by TRIzol. RNA purification and RT-qPCR were conducted following the protocol described in the Experimental Section. FIG. 3B show IFN response after 2, 4, 6 h of incubation with 5 μM of CDNs. […] Two independent assays were performed in triplicates (n=2). Error bars indicate SD. See Yi et al, Tuning the Innante Immune Response to Cyclic Dinucleotides by Using Atomic Mutagenesis, ChemBioChem, Volume 21 (2020).
As most synthetic c-di-GMP analogues activated IRF3, the inventors analyzed their dose and time dependency for inducing IFN-β mRNA production by using RT-qPCR. RAW 264.7 cells were transfected with 1, 5 and 10 μM of CDNs as described above and incubated for 2, 4 and 6 h. Total RNA was isolated and used for RT-qPCR. As shown in FIGS. 3A-3B, c-di-GMP induced the most IFN-β mRNA production 4 h post transfection, whereas the highest response was observed after 2 h for c-di-tzGMP, c-GthGMP, and c-GtzGMP.
RT-qPCR. RAW 264.7 cells were plated on 48-well plates (2.5×10^5 cells per well) and transfected with CDN using the same method as above after 48 h of incubation at 37° C. Cells were then incubate with regular growth medium for designated time, and total RNA was isolated with TRIzol® reagent and purified with RNeasy mini kit (Qiagen) following the manufacturer's protocol. Following elution, RNA yields were evaluated using a Nanodrop spectrophotometer (Nanodrop technologies). RNA samples were converted to cDNA with SuperScript III First-Strand Synthesis kit (Invitrogen) with random hexamers following the manufacturer's protocol. Quantitative PCR (SYBR Green) analysis was performed in duplicates on an Applied Biosystems 7300 Real-time PCR system (Invitrogen). Transcription level of IFN-β gene of each sample was normalized to housekeeping gene TBP and then to untreated samples (UT) using the delta-delta CT method.

T1 sequence (Q9HX69 whole entry): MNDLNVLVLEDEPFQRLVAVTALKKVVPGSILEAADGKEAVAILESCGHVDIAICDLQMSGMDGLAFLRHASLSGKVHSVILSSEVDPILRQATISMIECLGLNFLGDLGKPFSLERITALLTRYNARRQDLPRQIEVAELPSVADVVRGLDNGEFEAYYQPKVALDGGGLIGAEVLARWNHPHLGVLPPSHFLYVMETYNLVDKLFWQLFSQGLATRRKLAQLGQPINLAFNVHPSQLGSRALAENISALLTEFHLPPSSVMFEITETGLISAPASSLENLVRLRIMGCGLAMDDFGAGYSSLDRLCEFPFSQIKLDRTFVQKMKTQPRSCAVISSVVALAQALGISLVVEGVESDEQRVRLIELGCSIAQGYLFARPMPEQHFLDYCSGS

Q: Nc1nc2c([C@@H]3O[C@@H]4COP(=O)(O)O[C@H]5[C@@H](O)[C@H](n6cnc7c(=O)[nH]c(N)nc76)O[C@@H]5COP(=O)(O)O[C@H]4[C@H]3O)snc2c(=O)[nH]1 [c-G^tzGMP] was tested. Which “k2 (cleavage reaction)” value (rocR; 100 nM rocR, 37° C.) did it give?
A: 3.07 ± 0.25 s⁻¹

Q: And the k2 (rocR; 100 nM rocR, 37° C., Table 3)?
A: 0.096 ± 0.091 s⁻¹

Q: What about the k3 (rocR; 100 nM rocR, 37° C., Table 3) of the same compound?
A: 3.07 ± 0.25 s⁻¹

Q: And the k3 (rocR; 100 nM rocR, 37° C., association in second orientation of heterodimeric CDN)?
A: 1.8e+06 ± 100000 M⁻¹ s⁻¹

Q: And the k4 (rocR; 100 nM rocR, 37° C., cleavage in second orientation)?
A: 0.34 ± 0.01 s⁻¹

Q: And the “k−3” value (rocR; 100 nM rocR, 37° C., dissociation in second orientation)?
A: 0.135 ± 0.007 s⁻¹

Q: What about the k1 (rocR; 100 nM rocR, 37° C., enzyme/substrate association) of the same compound?
A: 1.85e+06 ± 70000 M⁻¹ s⁻¹

Q: What about the “order of gradually reduced rocR hydrolysis rate” value (rocR; FIG. 10F) of the same compound?
A: c-di-GMP, c-di-^tzGMP, c-G^tzGMP, c-G^thGMP and lastly c-di-^thGMP

Q: And the “final percentage of product P1” value (rocR; Scheme 2b)?
A: 58%

Q: And the “final percentage of product P2” value (rocR; Scheme 2b)?
A: 42%

Q: What about the “products of rocR-mediated cleavage” value (rocR; mixed CDNs, HPLC) of the same compound?
A: two products in nearly the same amount

Q: And the “IRF3 phosphorylation (pIRF3), concentration dependence” value (STING pathway [1])?
A: Increasing amounts of phosphorylated IRF3

Q: What about the “IFN-β mRNA production / IFN response” value (STING pathway [2]; RAW 264.7, 1, 5, 10 μM CDN, 2, 4, 6 h) of the same compound?
A: earlier and stronger maximum IFN-β response compared to the native c-di-GMP

Q: And the “time post transfection of highest IFN-β mRNA production” value (STING pathway [2]; RAW 264.7, 1, 5 and 10 μM CDN, 2, 4 and 6 h tested)?
A: 2 h

Q: And the “order of IFN-β induction” value (STING pathway [2]; RAW 264.7, RT-qPCR, FIG. 3)?
A: c-GthGMP>c-di-tzGMP>c-GtzGMP>c-di-GMP>c-di-thGMP
